Laboratory results reported in patent US20150094474A1, “AGRICULTURAL CHEMICALS” (Redx Pharma Ltd., priority 2012, published 2015).

Experiments:
peas = assay: Herbicidal bioassay, peas (% necrosis); assay type: in vivo
Summary of the method: (§1)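 Lolium perenne, barley, peas and Chinese cabbage at 2-4 true leaf stage sprayed simultaneously with a Potter tower, compounds in DMSO at six concentrations (0.05% to 0.0001%). Phytotoxicity scored as % necrosis per EPPO PP1/135 at set intervals; five replicates per treatment and species; DMSO and water controls.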

barley = assay: Herbicidal bioassay, barley (% necrosis); assay type: in vivo
Summary of the method: as §1

CC(/C=N/OCc1ccccc1)Oc1ccc(Oc2ccc(C(F)(F)F)cn2)cc1 (stereo not drawn) [Compound 65, N-Benzyloxy-2-[4-[[5-(trifluoromethyl)-2-pyridyl]oxy]phenoxy]propan-1-imine]
C (less than 50% necrosis): Sum of % necrosis in Peas (peas; Dose 0.000001, Day 0) | Sum of % necrosis in Peas (peas; Dose 0.000001, Day 1) | Sum of % necrosis in Peas (peas; Dose 0.000001, Day 3) | Sum of % necrosis in Peas (peas; Dose 0.000001, Day 7) | Sum of % necrosis in Peas (peas; Dose 0.000001, Day 10) | Sum of % necrosis in Peas (peas; Dose 0.000001, Day 14) | Sum of % necrosis in Peas (peas; Dose 0.000005, Day 0) | Sum of % necrosis in Peas (peas; Dose 0.000005, Day 1) | Sum of % necrosis in Peas (peas; Dose 0.000005, Day 3) | Sum of % necrosis in Peas (peas; Dose 0.000005, Day 7) | Sum of % necrosis in Peas (peas; Dose 0.000005, Day 10) | Sum of % necrosis in Peas (peas; Dose 0.000005, Day 14) | Sum of % necrosis in Peas (peas; Dose 0.00001, Day 0) | Sum of % necrosis in Peas (peas; Dose 0.00001, Day 1) | Sum of % necrosis in Peas (peas; Dose 0.00001, Day 3) | Sum of % necrosis in Peas (peas; Dose 0.00001, Day 7) | Sum of % necrosis in Peas (peas; Dose 0.00001, Day 10) | Sum of % necrosis in Peas (peas; Dose 0.00001, Day 14) | Sum of % necrosis in Peas (peas; Dose 0.00005, Day 0) | Sum of % necrosis in Peas (peas; Dose 0.00005, Day 1) | Sum of % necrosis in Peas (peas; Dose 0.00005, Day 3) | Sum of % necrosis in Peas (peas; Dose 0.00005, Day 7) | Sum of % necrosis in Peas (peas; Dose 0.00005, Day 10) | Sum of % necrosis in Peas (peas; Dose 0.00005, Day 14) | Sum of % necrosis in Peas (peas; Dose 0.0001, Day 0) | Sum of % necrosis in Peas (peas; Dose 0.0001, Day 1) | Sum of % necrosis in Peas (peas; Dose 0.0001, Day 3) | Sum of % necrosis in Peas (peas; Dose 0.0001, Day 7) | Sum of % necrosis in Peas (peas; Dose 0.0001, Day 10) | Sum of % necrosis in Peas (peas; Dose 0.0001, Day 14) | Sum of % necrosis in Peas (peas; Dose 0.0005, Day 0) | Sum of % necrosis in Peas (peas; Dose 0.0005, Day 1) | Sum of % necrosis in Peas (peas; Dose 0.0005, Day 3) | Sum of % necrosis in Peas (peas; Dose 0.0005, Day 7) | Sum of % necrosis in Peas (peas; Dose 0.0005, Day 10) | Sum of % necrosis in Peas (peas; Dose 0.0005, Day 14) | Sum of % necrosis in barley (barley; Dose 0.000001, Day 0) | Sum of % necrosis in barley (barley; Dose 0.000001, Day 1) | Sum of % necrosis in barley (barley; Dose 0.000001, Day 3) | Sum of % necrosis in barley (barley; Dose 0.000001, Day 7) | Sum of % necrosis in barley (barley; Dose 0.000001, Day 10) | Sum of % necrosis in barley (barley; Dose 0.000001, Day 14) | Sum of % necrosis in barley (barley; Dose 0.000005, Day 0) | Sum of % necrosis in barley (barley; Dose 0.000005, Day 1) | Sum of % necrosis in barley (barley; Dose 0.000005, Day 3) | Sum of % necrosis in barley (barley; Dose 0.000005, Day 7) | Sum of % necrosis in barley (barley; Dose 0.000005, Day 10) | Sum of % necrosis in barley (barley; Dose 0.000005, Day 14) | Sum of % necrosis in barley (barley; Dose 0.00001, Day 0) | Sum of % necrosis in barley (barley; Dose 0.00001, Day 1) | Sum of % necrosis in barley (barley; Dose 0.00001, Day 3) | Sum of % necrosis in barley (barley; Dose 0.00001, Day 7) | Sum of % necrosis in barley (barley; Dose 0.00001, Day 10) | Sum of % necrosis in barley (barley; Dose 0.00001, Day 14) | Sum of % necrosis in barley (barley; Dose 0.00005, Day 0) | Sum of % necrosis in barley (barley; Dose 0.00005, Day 1) | Sum of % necrosis in barley (barley; Dose 0.00005, Day 3) | Sum of % necrosis in barley (barley; Dose 0.00005, Day 7) | Sum of % necrosis in barley (barley; Dose 0.00005, Day 10) | Sum of % necrosis in barley (barley; Dose 0.00005, Day 14) | Sum of % necrosis in barley (barley; Dose 0.0001, Day 0) | Sum of % necrosis in barley (barley; Dose 0.0001, Day 1) | Sum of % necrosis in barley (barley; Dose 0.0001, Day 3) | Sum of % necrosis in barley (barley; Dose 0.0001, Day 7) | Sum of % necrosis in barley (barley; Dose 0.0001, Day 10) | Sum of % necrosis in barley (barley; Dose 0.0001, Day 14) | Sum of % necrosis in barley (barley; Dose 0.0005, Day 0) | Sum of % necrosis in barley (barley; Dose 0.0005, Day 1) | Sum of % necrosis in barley (barley; Dose 0.0005, Day 3) | Sum of % necrosis in barley (barley; Dose 0.0005, Day 7) | Sum of % necrosis in barley (barley; Dose 0.0005, Day 10) | Sum of % necrosis in barley (barley; Dose 0.0005, Day 14)
